Experimental data reported in US9334286B2, “Pharmacologically active compounds” (Cancer Research Technology Limited, priority 2012, dated 2016).

Molecular target: full length MPS1 (Homo sapiens (Human), UniProt P33981)
Test: Measurement of inhibition of MPS1 kinase (Caliper EZ reader, fluorescent labelled peptide H236)
Format: biochemical
Conditions: full length MPS1 12.5 nM or 3 nM, peptide H236 5 μM, ATP 10 μM, 60 min at room temperature
Experimental: The reaction was carried out for 60 min at room temperature and stopped by the addition of buffer (10 μl) containing 20 mM EDTA, 0.05% (v/v) Brij-35, in 0.1M HEPES-buffered saline (Free acid, Sigma, UK). The plate was read on a Caliper EZ reader II (Caliper Life Sciences).
The reader provides a Software package (‘Reviewer’) which converts the peak heights into % conversion by measuring both product and substrate peak and also allows selection of control well which represent 0% and 100% inhibition respectively. The % inhibition of the compounds is calculated relative to the means of selected control wells. IC50s are determined by testing the compounds at a range of concentrations from 0.25 nM-100 μM. The % inhibitions at each concentration are then fitted to a 4 parameter logistic fit: y=(a+((b−a)/(1+((c/x^d)))) where a=asym min, b=asym max, c=IC50 and d=hill coefficient

full length MPS1, sequence (P33981 whole entry): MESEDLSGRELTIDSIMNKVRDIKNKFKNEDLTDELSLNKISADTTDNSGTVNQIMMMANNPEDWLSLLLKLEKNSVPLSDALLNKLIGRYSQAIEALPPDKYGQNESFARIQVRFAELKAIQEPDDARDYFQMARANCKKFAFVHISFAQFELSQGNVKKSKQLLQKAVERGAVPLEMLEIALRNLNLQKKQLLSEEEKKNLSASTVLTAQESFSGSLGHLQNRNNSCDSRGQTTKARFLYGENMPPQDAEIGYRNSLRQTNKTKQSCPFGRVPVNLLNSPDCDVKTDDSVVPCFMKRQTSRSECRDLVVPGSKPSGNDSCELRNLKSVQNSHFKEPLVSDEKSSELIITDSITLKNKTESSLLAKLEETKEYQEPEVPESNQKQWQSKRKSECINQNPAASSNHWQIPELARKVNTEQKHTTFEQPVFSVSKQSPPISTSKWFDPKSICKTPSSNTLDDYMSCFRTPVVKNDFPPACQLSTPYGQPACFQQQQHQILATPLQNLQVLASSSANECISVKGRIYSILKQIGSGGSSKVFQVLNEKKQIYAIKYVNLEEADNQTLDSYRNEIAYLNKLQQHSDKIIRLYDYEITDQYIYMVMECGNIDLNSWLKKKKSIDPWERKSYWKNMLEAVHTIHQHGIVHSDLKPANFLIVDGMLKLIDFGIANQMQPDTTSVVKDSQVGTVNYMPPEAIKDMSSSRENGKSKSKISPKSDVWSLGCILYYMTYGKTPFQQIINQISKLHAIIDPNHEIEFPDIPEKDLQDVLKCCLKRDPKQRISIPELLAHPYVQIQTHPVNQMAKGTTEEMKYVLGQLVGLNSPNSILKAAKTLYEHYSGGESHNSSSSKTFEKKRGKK

| Compound | IC50 |
| --- | --- |
| COc1cc(-c2cnc(C)n2C)ccc1Nc1cc2cc(-c3cnn(C)c3CO)ccc2cn1 [Example 34, (4-(3-((4-(1,2-Dimethyl-1H-imidazol-5-yl)-2-methoxyphenyl)amino)isoquinolin-6-yl)-1-methyl-1H-pyrazol-5-yl)methanol] | 3 nM |
| COCCn1c(-c2ccc(Nc3cc4cc(-c5cnn(CC(C)(C)O)c5)ccc4cn3)c(OC)c2)cnc1C [Example 35, 1-(4-(3-((2-Methoxy-4-(1-(2-methoxyethyl)-2-methyl-1H-imidazol-5-yl)phenyl)amino)-isoquinolin-6-yl)-1H-pyrazol-1-yl)-2-methylpropan-2-ol] | 3 nM |
| COc1cc(-c2cnc(C)n2C)ccc1Nc1cc2cc(-c3cnn(CC4COC4)c3)ccc2cn1 [Example 37, N-(4-(1,2-Dimethyl-1H-imidazol-5-yl)-2-methoxyphenyl)-6-(1-(oxetan-3-ylmethyl)-1H-pyrazol-4-yl)isoquinolin-3-amine] | 5 nM |
| COc1cc(-c2nncn2C)ccc1Nc1cc2cc(-c3cnn(CC(C)(C)O)c3)ccc2cn1 [Example 41, 1-(4-(3-((2-Methoxy-4-(4-methyl-4H-1,2,4-triazol-3-yl)phenyl)amino)isoquinolin-6-yl)-1H-pyrazol-1-yl)-2-methylpropan-2-ol] | 1 nM |
| Cc1ncc(-c2ccc(Nc3cc4cc(-c5cnn(CC(C)(C)O)c5)ccc4cn3)c(Cl)c2)n1C [Example 42, 1-(4-(3-((2-Chloro-4-(1,2-dimethyl-1H-imidazol-5-yl)phenyl)amino)isoquinolin-6-yl)-1H-pyrazol-1-yl)-2-methylpropan-2-ol] | 3 nM |
| COc1cc(-c2cnc(C)n2C)ccc1Nc1cc2cc(-c3cnn(CC4(O)CCC4)c3)ccc2cn1 [Example 43, 1-((4-(3-((4-(1,2-Dimethyl-1H-imidazol-5-yl)-2-methoxyphenyl)amino)isoquinolin-6-yl)-1H-pyrazol-1-yl)methyl)cyclobutanol] | 3 nM |
| COc1cc(-c2cnc(C)n2C)ccc1Nc1cc2cc(-c3cnn(CC(F)(F)F)c3)ccc2cn1 [Example 44, N-(4-(1,2-Dimethyl-1H-imidazol-5-yl)-2-methoxyphenyl)-6-(1-(2,2,2-trifluoroethyl)-1H-pyrazol-4-yl)isoquinolin-3-amine] | 4 nM |
| CC(C)(O)Cn1cc(-c2ccc3cnc(Nc4ccc(N5CCOCC5)cc4Cl)cc3c2)cn1 [Example 45, 1-(4-(3-(2-Chloro-4-morpholinophenylamino)isoquinolin-6-yl)-1H-pyrazol-1-yl)-2-methylpropan-2-ol] | 45 nM |
| Cc1ncc(-c2ccc(Nc3cc4cc(-c5cnn(CC(C)(C)O)c5)ccc4cn3)cc2)n1C [Example 47, 1-(4-(3-(4-(1,2-Dimethyl-1H-imidazol-5-yl)phenylamino)isoquinolin-6-yl)-1H-pyrazol-1-yl)-2-methylpropan-2-ol] | 6 nM |
| COc1cc(C#N)ccc1Nc1cc2cc(-c3cnn(CC(C)(C)O)c3)ccc2cn1 [Example 49, 4-(6-(1-(2-Hydroxy-2-methylpropyl)-1H-pyrazol-4-yl)isoquinolin-3-ylamino)-3-methoxy-benzonitrile] | 11 nM |
| COc1cc(F)ccc1Nc1cc2cc(-c3cnn(CC(C)(C)O)c3)ccc2cn1 [Example 54, 1-(4-(3-(4-Fluoro-2-methoxyphenylamino)isoquinolin-6-yl)-1H-pyrazol-1-yl)-2-methylpropan-2-ol] | 65 nM |
| COc1cc(-c2nnc3n2CCN(C(=O)OC(C)(C)C)C3)ccc1Nc1cc2cc(-c3cnn(CC(C)(C)O)c3)ccc2cn1 [Example 55, tert-Butyl 3-(4-(6-(1-(2-hydroxy-2-methylpropyl)-1H-pyrazol-4-yl)isoquinolin-3-ylamino)-3-methoxyphenyl)-5,6-dihydro-[1,2,4]triazolo[4,3-a]pyrazine-7(8H)-carboxylate] | 3 nM |
| COc1cc(-c2cnc(C)n2C)cnc1Nc1cc2cc(-c3cnn(CC(C)(C)O)c3)ccc2cn1 [Example 57, 1-(4-(3-((5-(1,2-Dimethyl-1H-imidazol-5-yl)-3-methoxypyridin-2-yl)amino)isoquinolin-6-yl)-1H-pyrazol-1-yl)-2-methylpropan-2-ol] | 3 nM |
| CC(C)(O)Cn1cc(-c2ccc3cnc(Nc4ccc(-c5cncnc5)cc4Cl)cc3c2)cn1 [Example 58, 1-(4-(3-((2-Chloro-4-(pyrimidin-5-yl)phenyl)amino)isoquinolin-6-yl)-1H-pyrazol-1-yl)-2-methylpropan-2-ol] | 5 nM |
| COCCNC(=O)c1ccc(Nc2cc3cc(-c4cnn(CC(C)(C)O)c4)ccc3cn2)c(OC)c1 [Example 62, 4-((6-(1-(2-Hydroxy-2-methylpropyl)-1H-pyrazol-4-yl)isoquinolin-3-yl)amino)-3-methoxy-N-(2-methoxyethyl)benzamide] | 3 nM |
| COCc1ncc(-c2ccc(Nc3cc4cc(-c5cnn(CC(C)(C)O)c5)ccc4cn3)c(OC)c2)n1C [Example 63, 1-(4-(3-((2-Methoxy-4-(2-(methoxymethyl)-1-methyl-1H-imidazol-5-yl)phenyl)amino)-isoquinolin-6-yl)-1H-pyrazol-1-yl)-2-methylpropan-2-ol] | 1 nM |

Other lines, results leading:

| IC50 | Compound |
| --- | --- |
| 2 nM | COCCn1cc(-c2ccc3cnc(Nc4ccc(-c5cnc(C)n5CCOC)cc4OC)cc3c2)cn1 [Example 31, N-(2-Methoxy-4-(1-(2-methoxyethyl)-2-methyl-1H-imidazol-5-yl)phenyl)-6-(1-(2-methoxyethyl)-1H-pyrazol-4-yl)isoquinolin-3-amine] |
| 3 nM | COc1cc(-c2cnc(C)n2C)ccc1Nc1cc2cc(-c3cnn(C4COC4)c3)ccc2cn1 [Example 33, N-(4-(1,2-Dimethyl-1H-imidazol-5-yl)-2-methoxyphenyl)-6-(1-(oxetan-3-yl)-1H-pyrazol-4-yl)isoquinolin-3-amine] |
| 3 nM | COc1cc(-c2cnn(C)c2CO)ccc1Nc1cc2cc(-c3cnn(CC(C)(C)O)c3)ccc2cn1 [Example 36, 1-(4-(3-((4-(5-(Hydroxymethyl)-1-methyl-1H-pyrazol-4-yl)-2-methoxyphenyl)amino)-isoquinolin-6-yl)-1H-pyrazol-1-yl)-2-methylpropan-2-ol] |
| 6 nM | COc1cc(-c2cnc(C)n2C)ccc1Nc1cc2cc(-c3cnn(C4CCOCC4)c3)ccc2cn1 [Example 39, N-(4-(1,2-Dimethyl-1H-imidazol-5-yl)-2-methoxyphenyl)-6-(1-(tetrahydro-2H-pyran-4-yl)-1H-pyrazol-4-yl)isoquinolin-3-amine] |
| 2 nM | COc1cc(C(=O)N2CC(OC)C2)ccc1Nc1cc2cc(-c3cnn(CC(C)(C)O)c3)ccc2cn1 [Example 46, (4-(6-(1-(2-Hydroxy-2-methylpropyl)-1H-pyrazol-4-yl)isoquinolin-3-ylamino)-3-methoxy-phenyl)(3-methoxyazetidin-1-yl)methanone] |
| 2 nM | CCOc1cc(-c2nncn2C)ccc1Nc1cc2cc(-c3cnn(CC(C)(C)O)c3)ccc2cn1 [Example 48, 1-(4-(3-(2-Ethoxy-4-(4-methyl-4H-1,2,4-triazol-3-yl)phenylamino)isoquinolin-6-yl)-1H-pyrazol-1-yl)-2-methylpropan-2-ol] |
| 2 nM | COc1c(Nc2cc3cc(-c4cnn(CC(C)(C)O)c4)ccc3cn2)ccc(-c2cnc(C)n2C)c1F [Example 50, 1-(4-(3-(4-(1,2-Dimethyl-1H-imidazol-5-yl)-3-fluoro-2-methoxyphenylamino)isoquinolin-6-yl)-1H-pyrazol-1-yl)-2-methylpropan-2-ol] |
| 4 nM | COCc1c(-c2ccc(Nc3cc4cc(-c5cnn(CC(C)(C)O)c5)ccc4cn3)c(OC)c2)cnn1C [Example 51, 1-(4-(3-(2-Methoxy-4-(5-(methoxymethyl)-1-methyl-1H-pyrazol-4-yl)phenylamino)isoquinolin-6-yl)-1H-pyrazol-1-yl)-2-methylpropan-2-ol] |
| 4 nM | COc1cc(-c2cnn(C)c2)ccc1Nc1cc2cc(-c3cnn(CC(C)(C)O)c3)ccc2cn1 [Example 52, 1-(4-(3-(2-Methoxy-4-(1-methyl-1H-pyrazol-4-yl)phenylamino)isoquinolin-6-yl)-1H-pyrazol-1-yl)-2-methylpropan-2-ol] |
| 4 nM | COc1cc(-c2cnn(C)c2C)ccc1Nc1cc2cc(-c3cnn(CC(C)(C)O)c3)ccc2cn1 [Example 53, 1-(4-(3-(4-(1,5-Dimethyl-1H-pyrazol-4-yl)-2-methoxyphenylamino)isoquinolin-6-yl)-1H-pyrazol-1-yl)-2-methylpropan-2-ol] |
| 3 nM | COc1nc(-c2cnc(C)n2C)ccc1Nc1cc2cc(-c3cnn(CC(C)(C)O)c3)ccc2cn1 [Example 56, 1-(4-(3-(6-(1,2-Dimethyl-1H-imidazol-5-yl)-2-methoxypyridin-3-ylamino)isoquinolin-6-yl)-1H-pyrazol-1-yl)-2-methylpropan-2-ol] |
| 4 nM | CC(C)(O)Cn1cc(-c2ccc3cnc(Nc4ccc(S(C)(=O)=O)cc4Cl)cc3c2)cn1 [Example 59, 1-(4-(3-((2-Chloro-4-(methylsulfonyl)phenyl)amino)isoquinolin-6-yl)-1H-pyrazol-1-yl)-2-methylpropan-2-ol] |
| 2 nM | COc1cc(C(=O)N(C)C)ccc1Nc1cc2cc(-c3cnn(CC(C)(C)O)c3)ccc2cn1 [Example 60, 4-((6-(1-(2-Hydroxy-2-methylpropyl)-1H-pyrazol-4-yl)isoquinolin-3-yl)amino)-3-methoxy-N,N-dimethylbenzamide] |
| 2 nM | COc1cc(C(=O)NCCO)ccc1Nc1cc2cc(-c3cnn(CC(C)(C)O)c3)ccc2cn1 [Example 61, 4-((6-(1-(2-Hydroxy-2-methylpropyl)-1H-pyrazol-4-yl)isoquinolin-3-yl)amino)-N-(2-hydroxyethyl)-3-methoxybenzamide] |
